# Experiments:
# [1] = tested on: dendritic cells (DCs) pulsed with InsB9–23; assay: MHC-II; format: cell-based, NOD mice; conditions: InsB9–23-pulsed DCs, TNFα or TNFα plus NAC; three independent peptidomes
# [2] = tested on: MIN6 cells and B6 mouse islets; assay: Granule-based antigen presentation; format: cell-based; conditions: MIN6 cells stimulated with TNFα; for S5 T cell responses to crinosome fractions from TNFα-treated MIN6 cells: with or without glutathione or TUDCA, n = 6
# [3] = tested on: InsB9–23(C19S)-specific T cell hybridomas; assay: Responses of InsB9–23; format: cell-based, NOD mice; conditions: C3.g7 cells pulsed with peptides, 0.3 μM; n = 6 hybridomas
# MHC-II = conditions: cited from earlier work
# soluble I-A^g7 molecules = assay: Biochemical competitive binding assay; parameters: species or system mouse; conditions: soluble I-A^g7, Extended Data Fig. 3c,d, n = 2
# [4] = tested on: S5 CD4^+ T cell hybridoma; assay: Response of the S5 CD4+ T cell hybridoma to synthetic peptides; format: cell-based, NOD mice; conditions: serially diluted peptide, IL-2 production
# [5] = tested on: 9B9 CD4^+ T cell hybridoma; assay: Response of the 9B9 CD4+ T cell hybridoma to synthetic peptides; format: cell-based, NOD mice; conditions: serially diluted peptide, IL-2 production
# [6] = tested on: islet and pancreatic lymph node cells; assay: IFNγ ELISPOT, antigen recall of pooled islet and pancreatic lymph node cells; format: cell-based; conditions: cells pooled from islets and pancreatic lymph nodes of 8-week-old female NOD mice, peptide 1 μM; n = 4
# [7] = tested on: MIN6 cells and B6 mouse islets; assay: β cell death and total granule protein after tunicamycin; format: cell-based; conditions: tunicamycin 2 h, followed by extensive washing
compound,measurement,setting,value
"CC(=O)N[C@@H](CS)C(=O)O [NAC, N-acetylcysteine]",InsB9–23(C19S) peptide in the DC I-A^g7 peptidome,[1],reduced
"C[C@H](CCC(=O)NCCS(=O)(=O)O)[C@H]1CC[C@H]2[C@@H]3[C@@H](O)C[C@@H]4C[C@H](O)CC[C@]4(C)[C@H]3CC[C@]12C [TUDCA, tauroursodeoxycholic acid]",S5 T cell responses to crinosome fractions from TNFα-treated MIN6 cells,[2],inhibited
N[C@@H](CCC(=O)N[C@@H](CS)C(=O)NCC(=O)O)C(=O)O [glutathione],S5 T cell responses to crinosome fractions from TNFα-treated MIN6 cells,[2],inhibited
EALYLVSGE [Nested InsB13-21(C19S)],Recognition of register peptides by InsB9–23(C19S)-specific T cell hybridomas,[3],only a few recognizing
GDLQTLALEVARE [CP1d],MHC-II binding relative to the native C-peptide,MHC-II,~ 45 fold
InsB12–20(C19A): surrogate InsB12–20 peptide with C19A,Binding to I-A^g7 compared to native counterparts,soluble I-A^g7 molecules,similarly reduced binding
SHLVEALALVCGERG [InsB9–23(Y16A)],Response of the S5 T cell hybridoma to peptide,[4],failed to respond at any peptide concentration
same,Response of the 9B9 T cell hybridoma to peptide,[5],did not respond
SHLVEALYLVCGERG [InsB9–23],IFNγ production by ELISPOT during antigen recall,[6],induced IFNγ production
SHLVEALYLVSGERG [InsB9–23(C19S)],Response of the S5 T cell hybridoma to peptide,[4],responded robustly
same,Response of the 9B9 T cell hybridoma to peptide,[5],minimal reactivity
same,IFNγ production by ELISPOT during antigen recall,[6],triggered even higher responses
TNFα,"Native InsB9–23 levels (9B9 T cell responses), TNFα-treated MIN6 cells",[2],did not affect
same,S5 T cell responses to crinosome fractions from TNFα-treated MIN6 cells,[2],significant increase
same,InsB9–23(C19S) peptide in the DC I-A^g7 peptidome,[1],appeared
tunicamycin,β cell death,[7],did not cause β cell death
